In patent publication US20080254152A1, “Methods for Reducing the Effects of Stress on Skin Condition” (priority 2003, published 2008):
Where no end group is shown, it is not given here.

Tested on: ICAM-1 expression in HUVECs
Assay: ICAM-1 expression in HUVECs chronically treated with CRH, then PMA
Assay type: cell-based, Human
Conditions: data not shown
Protocol: Following this, the cells were oxidatively stressed for 24 hours with 1 μM PMA (Sigma P8139).
Receptor antagonists were added to the cells during the pre-treatment period. These included the Glucocorticoid Receptor Antagonist; 2 μM Mifepristone (Sigma M8046) and two CRH receptor antagonists; 200 nM Astressin (Sigma A4933) and 200 nM α-helical CRF peptide antagonist (Sigma C2917).
ICAM-1 protein in each cell lysate was estimated using the Human sICAM-1 DuoSet ELISA kit (R&D Systems DY720) according to the manufacturer's instructions.
The capture antibody was diluted to a final concentration of 4 μg/ml in PBS and 100 μl was used to coat each well of a 96-well microtitre plate overnight at room temperature. The plate was then washed three times with wash buffer (0.05% Tween 20 in PBS). Each well received 300 μl of blocking buffer (1% BSA, 5% sucrose and 0.05% sodium azide in PBS), and the plate was incubated at room temperature for 1 hour before being washed as before. Each cell lysate was then diluted 1/200 in reagent diluent (1% BSA in PBS) and 100 μl added to duplicate wells of the antibody coated plate. Eight ICAM-1 standards were prepared in reagent diluent, at concentrations ranging from 0 to 1000 pg/ml, and duplicate 100 μl standards were added to the appropriate wells on the plate. A separate set of standards was routinely used for each plate. The plate was incubated at room temperature for 2 hours before being washed again. 100 μl of detection antibody, diluted to a final concentration of 100 ng/ml, was added to each well and the plate incubated at room temperature for 2 hours. […] The absorbance of the plates was measured at 450 nm with the correction wavelength set at 570 nm.
A standard curve was plotted of mean absorbance versus ICAM-1 concentration and the line of best fit calculated by regression analysis. The unknown concentration of ICAM-1 in the samples was calculated from this, taking the lysate dilution factor into account.
To normalise for differences in cell number and total protein concentration, the final result was expressed as ng ICAM-1 per mg of total protein. […]

Substance: CRH: Corticotrophin Releasing Hormone, Calbiochem 05-23-0050 (SEEPPISLDLTFHLLREVLEMARAEQLAQQAHSNRKLMEII; ends and bridges not checked; UniProt P06850 154-194, looked up)
- Change in ICAM-1 secretion after chronic CRH treatment (1 to 100 nM CRH daily for 5 days, then PMA, vs untreated cells): significant increase

Substance: astressin
- Effect on increased induction of ICAM-1 post-oxidative stress (200 nM CRH receptor antagonist during 5-day CRH pre-treatment, then PMA): only partially blocked
- Level of ICAM-1 relative to that induced by oxidative stress after pre-treatment with CRH for five days (200 nM CRH receptor antagonist during CRH pre-treatment): approximately half
